Experimental data as given in PubChem BioAssay AID1259407 (Chemical Carcinogenesis Research Information System (CCRIS), 2018).
Activity calls are given as the source filed them. No rule for the calls is given here.

Tested on: CCRIS mutagenicity, Ames/micronucleus/aberration tests
Test: CCRIS mutagenicity studies
[1] = Test System: AMES SALMONELLA TYPHIMURIUM, Strain/Indicator: TA97, Metabolic Activation: NONE, Method: PREINCUBATION
[2] = Test System: AMES SALMONELLA TYPHIMURIUM, Strain/Indicator: TA98, Metabolic Activation: NONE, Method: PREINCUBATION
[3] = Test System: AMES SALMONELLA TYPHIMURIUM, Strain/Indicator: TA100, Metabolic Activation: NONE, Method: PREINCUBATION
[4] = Test System: AMES SALMONELLA TYPHIMURIUM, Strain/Indicator: TA1535, Metabolic Activation: NONE, Method: PREINCUBATION

Measured: mutagenic call

CCN(C(=O)N(CC)c1ccccc1)c1ccccc1
inactive: Test System: AMES SALMONELLA TYPHIMURIUM, Strain/Indicator: TA97, Metabolic Activation: HAMSTER, LIVER, S-9, AROCLOR 1254 (10%), Method: PREINCUBATION inactive; negative | Test System: AMES SALMONELLA TYPHIMURIUM, Strain/Indicator: TA97, Metabolic Activation: HAMSTER, LIVER, S-9, AROCLOR 1254 (30%), Method: PREINCUBATION inactive; negative | [1] inactive; negative | Test System: AMES SALMONELLA TYPHIMURIUM, Strain/Indicator: TA97, Metabolic Activation: RAT, LIVER, S-9, AROCLOR 1254 (10%), Method: PREINCUBATION inactive; negative | Test System: AMES SALMONELLA TYPHIMURIUM, Strain/Indicator: TA97, Metabolic Activation: RAT, LIVER, S-9, AROCLOR 1254 (30%), Method: PREINCUBATION inactive; negative | Test System: AMES SALMONELLA TYPHIMURIUM, Strain/Indicator: TA98, Metabolic Activation: HAMSTER, LIVER, S-9, AROCLOR 1254 (10%), Method: PREINCUBATION inactive; negative | Test System: AMES SALMONELLA TYPHIMURIUM, Strain/Indicator: TA98, Metabolic Activation: HAMSTER, LIVER, S-9, AROCLOR 1254 (30%), Method: PREINCUBATION inactive; negative | [2] inactive; negative | Test System: AMES SALMONELLA TYPHIMURIUM, Strain/Indicator: TA98, Metabolic Activation: RAT, LIVER, S-9, AROCLOR 1254 (10%), Method: PREINCUBATION inactive; negative | Test System: AMES SALMONELLA TYPHIMURIUM, Strain/Indicator: TA98, Metabolic Activation: RAT, LIVER, S-9, AROCLOR 1254 (30%), Method: PREINCUBATION inactive; negative | Test System: AMES SALMONELLA TYPHIMURIUM, Strain/Indicator: TA100, Metabolic Activation: HAMSTER, LIVER, S-9, AROCLOR 1254 (10%), Method: PREINCUBATION inactive; negative | Test System: AMES SALMONELLA TYPHIMURIUM, Strain/Indicator: TA100, Metabolic Activation: HAMSTER, LIVER, S-9, AROCLOR 1254 (30%), Method: PREINCUBATION inactive; negative | [3] inactive; negative | Test System: AMES SALMONELLA TYPHIMURIUM, Strain/Indicator: TA100, Metabolic Activation: RAT, LIVER, S-9, AROCLOR 1254 (10%), Method: PREINCUBATION inactive; negative | Test System: AMES SALMONELLA TYPHIMURIUM, Strain/Indicator: TA100, Metabolic Activation: RAT, LIVER, S-9, AROCLOR 1254 (30%), Method: PREINCUBATION inactive; negative | Test System: AMES SALMONELLA TYPHIMURIUM, Strain/Indicator: TA1535, Metabolic Activation: HAMSTER, LIVER, S-9, AROCLOR 1254 (10%), Method: PREINCUBATION inactive; negative | Test System: AMES SALMONELLA TYPHIMURIUM, Strain/Indicator: TA1535, Metabolic Activation: HAMSTER, LIVER, S-9, AROCLOR 1254 (30%), Method: PREINCUBATION inactive; negative | [4] inactive; negative | Test System: AMES SALMONELLA TYPHIMURIUM, Strain/Indicator: TA1535, Metabolic Activation: RAT, LIVER, S-9, AROCLOR 1254 (10%), Method: PREINCUBATION inactive; negative | Test System: AMES SALMONELLA TYPHIMURIUM, Strain/Indicator: TA1535, Metabolic Activation: RAT, LIVER, S-9, AROCLOR 1254 (30%), Method: PREINCUBATION inactive; negative

Nc1ccccc1C(=O)OCCc1ccccc1
inactive: Test System: AMES SALMONELLA TYPHIMURIUM, Strain/Indicator: TA97, Metabolic Activation: HAMSTER, LIVER, S-9, AROCLOR 1254 (10 OR 30%), Method: PREINCUBATION inactive; negative | [1] inactive; negative | Test System: AMES SALMONELLA TYPHIMURIUM, Strain/Indicator: TA97, Metabolic Activation: RAT, LIVER, S-9, AROCLOR 1254 (10 OR 30%), Method: PREINCUBATION inactive; negative | Test System: AMES SALMONELLA TYPHIMURIUM, Strain/Indicator: TA98, Metabolic Activation: HAMSTER, LIVER, S-9, AROCLOR 1254 (10 OR 30%), Method: PREINCUBATION inactive; negative | [2] inactive; negative | Test System: AMES SALMONELLA TYPHIMURIUM, Strain/Indicator: TA98, Metabolic Activation: RAT, LIVER, S-9, AROCLOR 1254 (10 OR 30%), Method: PREINCUBATION inactive; negative | Test System: AMES SALMONELLA TYPHIMURIUM, Strain/Indicator: TA100, Metabolic Activation: HAMSTER, LIVER, S-9, AROCLOR 1254 (10 OR 30%), Method: PREINCUBATION inactive; negative | [3] inactive; negative | Test System: AMES SALMONELLA TYPHIMURIUM, Strain/Indicator: TA100, Metabolic Activation: RAT, LIVER, S-9, AROCLOR 1254 (10 OR 30%), Method: PREINCUBATION inactive; negative | Test System: AMES SALMONELLA TYPHIMURIUM, Strain/Indicator: TA1535, Metabolic Activation: HAMSTER, LIVER, S-9, AROCLOR 1254 (10 OR 30%), Method: PREINCUBATION inactive; negative | [4] inactive; negative | Test System: AMES SALMONELLA TYPHIMURIUM, Strain/Indicator: TA1535, Metabolic Activation: RAT, LIVER, S-9, AROCLOR 1254 (10 OR 30%), Method: PREINCUBATION inactive; negative

CN(C(=O)CCl)c1snc2ccccc12
inactive: Test System: AMES SALMONELLA TYPHIMURIUM, Strain/Indicator: TA98, Metabolic Activation: NONE, Method: STANDARD PLATE inactive; negative | Test System: AMES SALMONELLA TYPHIMURIUM, Strain/Indicator: TA98, Metabolic Activation: S-9, Method: STANDARD PLATE inactive; negative | Test System: AMES SALMONELLA TYPHIMURIUM, Strain/Indicator: TA100, Metabolic Activation: NONE, Method: STANDARD PLATE inactive; negative | Test System: AMES SALMONELLA TYPHIMURIUM, Strain/Indicator: TA100, Metabolic Activation: S-9, Method: STANDARD PLATE inactive; negative | Test System: AMES SALMONELLA TYPHIMURIUM, Strain/Indicator: TA1535, Metabolic Activation: NONE, Method: STANDARD PLATE inactive; negative | Test System: AMES SALMONELLA TYPHIMURIUM, Strain/Indicator: TA1535, Metabolic Activation: S-9, Method: STANDARD PLATE inactive; negative | Test System: AMES SALMONELLA TYPHIMURIUM, Strain/Indicator: TA1537, Metabolic Activation: NONE, Method: STANDARD PLATE inactive; negative | Test System: AMES SALMONELLA TYPHIMURIUM, Strain/Indicator: TA1537, Metabolic Activation: S-9, Method: STANDARD PLATE inactive; negative

Cc1c(F)c(N2CCNC(C)C2)cc2c1c(=O)c(C(=O)O)cn2C1CC1 (stereo unspecified)
inactive: [2] inactive; negative | Test System: AMES SALMONELLA TYPHIMURIUM, Strain/Indicator: TA98, Metabolic Activation: RAT, LIVER, S-9, PHENOBARBITAL AND 5,6-BENZOFLAVONE, Method: PREINCUBATION inactive; negative | [3] inactive; negative | Test System: AMES SALMONELLA TYPHIMURIUM, Strain/Indicator: TA100, Metabolic Activation: RAT, LIVER, S-9, PHENOBARBITAL AND 5,6-BENZOFLAVONE, Method: PREINCUBATION inactive; negative | [4] inactive; negative | Test System: AMES SALMONELLA TYPHIMURIUM, Strain/Indicator: TA1535, Metabolic Activation: RAT, LIVER, S-9, PHENOBARBITAL AND 5,6-BENZOFLAVONE, Method: PREINCUBATION inactive; negative | Test System: AMES SALMONELLA TYPHIMURIUM, Strain/Indicator: TA1537, Metabolic Activation: NONE, Method: PREINCUBATION inactive; negative | Test System: AMES SALMONELLA TYPHIMURIUM, Strain/Indicator: TA1537, Metabolic Activation: RAT, LIVER, S-9, PHENOBARBITAL AND 5,6-BENZOFLAVONE, Method: PREINCUBATION inactive; negative | Test System: CHINESE HAMSTER V-79, Strain/Indicator: V-79 (HGPRT)/6-THIOGUANINE, Metabolic Activation: NONE inactive; negative | Test System: CHINESE HAMSTER V-79, Strain/Indicator: V-79 (HGPRT)/6-THIOGUANINE, Metabolic Activation: RAT, LIVER, S-9, PHENOBARBITAL AND 5,6-BENZOFLAVONE inactive; negative | Test System: E. COLI, Strain/Indicator: WP2 UVRA, Metabolic Activation: NONE, Method: PREINCUBATION inactive; negative | Test System: E. COLI, Strain/Indicator: WP2 UVRA, Metabolic Activation: RAT, LIVER, S-9, PHENOBARBITAL AND 5,6-BENZOFLAVONE, Method: PREINCUBATION inactive; negative

O=P(O)(O)OC(CO)CO
inactive: [1] inactive; negative | Test System: AMES SALMONELLA TYPHIMURIUM, Strain/Indicator: TA97, Metabolic Activation: RAT, LIVER, S-9, AROCLOR 1254, Method: PREINCUBATION inactive; negative | Test System: AMES SALMONELLA TYPHIMURIUM, Strain/Indicator: TA102, Metabolic Activation: NONE, Method: PREINCUBATION inactive; negative | Test System: AMES SALMONELLA TYPHIMURIUM, Strain/Indicator: TA102, Metabolic Activation: RAT, LIVER, S-9, AROCLOR 1254, Method: PREINCUBATION inactive; negative
